The source of these data is publication PMC7481357, “N-terminal Myristoylation Enhanced the Antimicrobial Activity of Antimicrobial Peptide PMAP-36PW” (Frontiers in Cellular and Infection Microbiology, 2020).

The test system of test [1] is S. typhimurium SL 1344. In kind it is cell-based, Salmonella typhimurium. The conditions noted are these: S. typhimurium SL 1344; * indicates resistant (CLSI, 2020). The procedure:
(§1) The MICs of Myr-36PW in vitro were measured through microdilution in accordance with the Clinical and Laboratory Standards Institute (CLSI, [2020]). The bacterial cells were cultured for 12 h at 37°C in the appropriate medium and then diluted to 1 × 10^6 CFU/mL. Equal volumes (100 μL) of bacterial cell suspension and two-fold serially diluted different concentrations peptides (0.0039–256 μg/mL) were added to each well of the sterile 96-well plate. The samples were incubated for 18 h at 37°C. After incubation, the MICs of the peptides were determined by evaluating the growth based on the OD600 of the cultures.

In test [2] the test system is P. aeruginosa GIM 1.551. Put plainly: Subcutaneous abscess model. The test is classed as in vivo, BALB/c mice. The conditions noted are these: injected 20 μL, 1 μg/μL, once a day for 3 days. Here is the method: A subcutaneous abscess model in vivo was established as previously reported (Zhao et al., [2019]). The mouse dorsal region with 3.0 cm diameter was treated with hair pusher. A total of 120 mice were randomly divided into two experimental models, one was challenged with S. aureus ATCC 25923 (2.5 × 10^8 CFU/mL, 60 μL), and the other was challenged with P. aeruginosa GIM 1.551 (3.0 × 10^8 CFU/mL, 60 μL). In the S. aureus ATCC 25923 model, 60 mice were divided into six groups of 10 members. The mice with no infection and treatment was used as a blank control, those directly injected with PBS (20 μL) as the negative control group, those injected with benzylpenicillin potassium (20 μL, 1 μg/μL) as the positive control group, and the remaining three groups as the treatment groups injected with Myr-36PW (20 μL, 1 μg/μL), PMAP-36PW (20 μL, 1 μg/μL), and PMAP-36 (20 μL, 1 μg/μL). The procedure in P. aeruginosa GIM 1.551 model is the same as that in S. aureus ATCC 25923 model, except for the use of ampicillin sodium as a positive control. Treatment once a day for 3 days was initiated when the mice developed prominent pustules on their backs. A day after the treatment, the size of the abscess was observed, and its tissues were excised, homogenized, and serially diluted. Bacteria CFU counts were calculated.
Figure 10 Treatment efficacy of subcutaneous abscess by Myr-36PW in vivo. Mice were injected with S. aureus ATCC 25923 or P. aeruginosa GIM 1.551 to develop a subcutaneous abscess before treatment. (A) Changes in the abscess area of mice after 3 days treatment. (B,C) Quantitative analysis of bacterial CFU in abscess area that received 3 days treatment under various experimental conditions. The number of CFU in each treatment group was normalized by using the CFU of the experimental group divided by the CFU of the PBS group (100%). BP is benzylpenicillin potassium, AS is ampicillin sodium. Data represent the mean ± SD of five individual experiments. *P < 0.05 and **P < 0.01, compared with PBS. ^#P < 0.05 and ^##P < 0.01, compared with PMAP-36PW.

Test [3] relates to P. aeruginosa GIM 1.551. Put plainly: Wound infection model. In kind it is in vivo, BALB/c mice. Conditions: 20 μL, 1 μg/μL, once a day for 7 days. Here is the method: Sixty mice with ten mice in each group were used in the experiment. Infection and treatment were performed as previously described (Hong et al., [2017]). The mouse dorsal region with a diameter of 3.0 cm was treated with hair pusher, and a full-thickness 2.0 cm diameter wound was created by excising the skin and infected by direct seeding with P. aeruginosa GIM 1.551 (1 × 10^8 CFU/mL, 50 μL). The wound was then covered with sterile gauze to prevent cross contamination. Treatment was initiated at 24 h after bacterial inoculation. The mice with no infection and treatment was used as a blank control, those provided with PBS (20 μL) as the negative control group, those administered with ampicillin sodium (20 μL, 1 μg/μL) as the positive control group, and the remaining were those treated with the three peptides (20 μL, 1 μg/μL) once a day for 7 days as the treatment groups. The mice were sacrificed after the 7 day treatment. Changes in the wound were observed, and the infected sections of skin were aseptically contained, homogenized, and serially diluted. Bacterial CFU counts were obtained.
Figure 11 Treatment value of wound by Myr-36PW in vivo. A 2 cm wound was cut with a knife and directly injected with P. aeruginosa GIM 1.551. (A) Wound changes of mice after 7 days treatment. (B) Bacterial CFU in the wound area treated for 7 days under different experimental conditions. AS is ampicillin sodium. Data represent the mean Log (CFU) ± SD of five individual experiments. *P < 0.05 and **P < 0.01, compared with PBS. ^#P < 0.05, compared with PMAP-36PW.

In test [4] the test system is S. aureus ATCC 25923. The test is classed as cell-based, Staphylococcus aureus. Conditions: S. aureus ATCC 25923; * indicates resistant (CLSI, 2020). Here is the method:
as §1

Test [5] relates to L. monocytogenes CICC 21634. The test is classed as cell-based, Listeria monocytogenes. The conditions noted are these: L. monocytogenes CICC 21634; * indicates resistant (CLSI, 2020). Here is the method:
as §1

For test [6], the system named is P. aeruginosa GIM 1.551. The test is classed as cell-based, Pseudomonas aeruginosa. The conditions noted are these: P. aeruginosa GIM 1.551; * indicates resistant (CLSI, 2020). Here is the method:
as §1

Test [7] has as its system P. aeruginosa GIM 1.551. The experiment in a line: Pneumonia (lung infection) model. The conditions noted are these: intranasal 40 μL, 1 μg/μL, once a day for 3 days. In kind it is in vivo, BALB/c mice. Here is the method:
A pneumonia model in vivo was established as previously reported, with minor modification (Cortés et al., [2002]; Aoki et al., [2009]; Shi et al., [2018]). A total of 120 mice were randomly divided into two experimental models, one was intranasal inoculation of S. aureus ATCC 25923 (8.3 × 10^9 CFU/mL, 50 μL), and the other was intranasal inoculation of P. aeruginosa GIM 1.551 (4.5 × 10^10 CFU/mL, 50 μL). In the S. aureus ATCC 25923 model, 60 mice were divided into the following six groups of 10 mice each: no infection and treatment was used as a blank control, those with intranasal administration of PBS (40 μL) as the negative control group, those administered with benzylpenicillin potassium (40 μL, 1 μg/μL) as the positive control group, and the remaining three corresponded to Myr-36PW (40 μL, 1 μg/μL), PMAP-36PW (40 μL, 1 μg/μL), and PMAP-36 groups (40 μL, 1 μg/μL). The procedure for P. aeruginosa GIM 1.551 model is the same as for S. aureus ATCC 25923 model, except for the use of ampicillin sodium as the positive control. After 4 h post-inoculation, treatment was initiated, once a day for 3 days. The mice were sacrificed 24 h after the treatment. Changes in the appearance of lung tissues were observed, and lung tissues were removed aseptically from the mice. Half of the removed lung tissues were gently fixed in buffered formaldehyde solution for histopathological assessment by hematoxylin and eosin (H&E) staining. Pathological changes were scored to provide individual therapeutic status as described previously (Lei et al., [2018]). The remaining lung tissues were added with 1 mL of PBS, homogenized, and serially diluted. Bacterial CFU counts were determined.
Figure 8 Therapeutic effect for pneumonia by Myr-36PW in vivo. Mice were injected with S. aureus ATCC 25923 or P. aeruginosa GIM 1.551 to form pneumonia, and lungs (n = 5) in each group were collected on day 4 after intranasal bacterial inoculation. (A) Morphological changes of lung tissues. (B) Representative histopathological images of processed lung section with hematoxylin and eosin (H&E) staining. Images are presented at a magnification of 20×. a: inflammatory cell infiltration. b: the alveolar wall is thickened. c: alveolar wall congestion or alveolar hemorrhage. (C,D) Pathological scores of the lung sections. Scoring standard: 1 indicated no pathology, 2 indicated local pulmonary congestion and inflammatory cell infiltration, 3 indicated pulmonary congestion and a large number of inflammatory cell infiltration, affecting <20% of the section, 4 indicated pulmonary congestion and a large number of inflammatory cell infiltration, affecting 20–50% of the section, and 5 indicated pulmonary congestion and a large number of inflammatory cell infiltration, affecting >50% of the section. (E,F) Bacterial CFU in lung homogenate. BP is benzylpenicillin potassium, AS is ampicillin sodium. Data represent the mean ± SD of five individual experiments.

Test [8] deals with L. monocytogenes CICC 21634. The experiment in a line: Inhibition zone assay (disk diffusion). On the set-up: key: +, means the peptide has antibacterial activity. The test is classed as cell-based, Listeria monocytogenes. The conditions noted are these: disk 10 μg peptide, 18 h at 37°C, * P < 0.05, ** P < 0.01 vs PMAP-36PW. Here is the method: (§2) The inhibition zone assay was performed through the disk diffusion to evaluate the antimicrobial activity of Myr-36PW in vitro (Dunne et al., [2017]). The four above-mentioned bacterial strains were used as experimental strains, with L. monocytogenes CICC 21634 cultured in BHI medium, and P. aeruginosa GIM 1.551 cultured in TSB medium. The bacterial cells were cultured for 12 h at 37°C in the appropriate medium, and the bacterial cell suspension was spread on LB agar. The disks containing 10 μg of peptides (1 μg/μL) were attached to the solid medium and incubated at 37°C for 18 h. Finally the diameter of the inhibition zone was measured.
On the technique in general: A growth-free zone around the sample is the usual read-out of agar diffusion tests.

For test [9], the system named is S. aureus ATCC 25923. Put plainly: Inhibition zone assay (disk diffusion). The test is classed as cell-based, Staphylococcus aureus. On the set-up: key: +, means the peptide has antibacterial activity. Conditions: disk 10 μg peptide, 18 h at 37°C, * P < 0.05, ** P < 0.01 vs PMAP-36PW. Here is the method: as §2
Test [10] has as its system P. aeruginosa GIM 1.551. Put plainly: Inhibition zone assay (disk diffusion). In kind it is cell-based, Pseudomonas aeruginosa. Conditions: disk 10 μg peptide, 18 h at 37°C, * P < 0.05, ** P < 0.01 vs PMAP-36PW. On the set-up: key: +, means the peptide has antibacterial activity. The procedure:
as §2

Test [11] relates to S. typhimurium SL 1344. The experiment in a line: Inhibition zone assay (disk diffusion). The test is classed as cell-based, Salmonella typhimurium. The conditions noted are these: disk 10 μg peptide, 18 h at 37°C, * P < 0.05, ** P < 0.01 vs PMAP-36PW. On the set-up: key: +, means the peptide has antibacterial activity. The procedure: as §2

“Also recorded” adds a separate entry of the source. Where only a bound is given, the exact number is not on record here.

In the case of `CC1(C)S[C@@H]2[C@H](NC(=O)[C@H](N)c3ccccc3)C(=O)N2[C@H]1C(=O)O` [Ampicillin sodium], the “MICs of different classes of antibiotics” value in test [1] came to 16 µg/mL; in test [4] it was 0.5 µg/mL; in test [5], 64 µg/mL; in test [6] it was 32 µg/mL. Moreover, in test [2], the Abscess area entry is “significantly reduced the abscess area and effectively suppressed its growth”. Also, the “Bacterial CFU in abscess area” value in test [2] (vs PMAP-36PW: Myr-36PW P < 0.05, ampicillin sodium P < 0.01, n = 5) is on record as “significant difference compared with that of PBS group (P < 0.01); also recorded: lower than that of PMAP-36PW group”. Moreover, in [3], the Wound size entry is recorded as “significantly reduced”. In addition, in [3] (vs PBS group: PMAP-36PW P < 0.05, Myr-36PW and ampicillin sodium P < 0.01, n = 5), the “Bacterial CFU in the wound area” value is reported as “significantly reduced”. Besides, the “Lung histopathology (H&E)” value in test [7] is “a complete alveolar structure, reduced blood stasis, and large reduction in inflammatory cells”. In addition, the “Bacterial CFU in lung homogenate” value in test [7] (n = 5) is “decreased the P. aeruginosa GIM 1.551 CFU level compared with the PMAP-36PW group (P < 0.05)”. For the same molecule, in test [7] (n = 5), the “Pathological scores of the lung sections” value is listed as “lower scores than PMAP-36PW group (P < 0.05)”.

For `CO/N=C(\C(=O)N[C@@H]1C(=O)N2C(C(=O)[O-])=C(CSC(=O)c3ccco3)CS[C@H]12)c1csc(N)n1.[Na+]` [Ceftiofur Sodium, Ceftiofur sodium], the “MICs of different classes of antibiotics” value in test [1] was 4 µg/mL; in [4], below 0.25 µg/mL; in test [5], 32* μg/mL; in [6], 64* μg/mL. The “In vitro antibacterial activity (disk diffusion)” value in test [8], in test [9], in test [10] and in test [11] was “+” each time.
